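Values below derive from 48-hour exposures of cells grown in 96-well plates, with endpoints linearly interpolated between the two concentrations bracketing the appropriate inhibition level. At the GI50, growth is halved. The concentration for full growth arrest is given as TGI.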
What was measured:
Assay in all cases: NCI tumour cell line growth inhibition, 48 h; in the data active = GI50 below about 0.43 µM; inactive = the rest
786-0 renal = system: 786-0 renal
A549 NSCLC = system: A549 NSCLC
ACHN renal = system: ACHN renal
BT-549 breast = system: BT-549 breast
CAKI-1 renal = system: CAKI-1 renal
CCRF-CEM leukemia = system: CCRF-CEM leukemia
COLO 205 colon = system: COLO 205 colon
DU-145 prostate = system: DU-145 prostate
EKVX NSCLC = system: EKVX NSCLC
HCC-2998 colon = system: HCC-2998 colon
HCT-116 colon = system: HCT-116 colon
HCT-15 colon = system: HCT-15 colon
HL-60(TB) leukemia = system: HL-60(TB) leukemia
HOP-62 NSCLC = system: HOP-62 NSCLC
HS 578T breast = system: HS 578T breast
HT29 colon = system: HT29 colon
IGROV1 ovarian = system: IGROV1 ovarian
K-562 leukemia = system: K-562 leukemia
KM12 colon = system: KM12 colon
LOX IMVI melanoma = system: LOX IMVI melanoma
M14 melanoma = system: M14 melanoma
MALME-3M melanoma = system: MALME-3M melanoma
MCF7 breast = system: MCF7 breast
MDA-MB-231 breast = system: MDA-MB-231 breast
MDA-MB-435 = system: MDA-MB-435
MOLT-4 leukemia = system: MOLT-4 leukemia
NCI-H226 lung = system: NCI-H226 lung
NCI-H23 lung = system: NCI-H23 lung
NCI/ADR-RES ovarian = system: NCI/ADR-RES ovarian
OVCAR-3 ovarian = system: OVCAR-3 ovarian
OVCAR-4 ovarian = system: OVCAR-4 ovarian
OVCAR-5 ovarian = system: OVCAR-5 ovarian
OVCAR-8 ovarian = system: OVCAR-8 ovarian
PC-3 prostate = system: PC-3 prostate
RPMI-8226 leukemia = system: RPMI-8226 leukemia
RXF 393 renal = system: RXF 393 renal
SF-268 CNS = system: SF-268 CNS
SF-295 CNS = system: SF-295 CNS
SK-MEL-2 melanoma = system: SK-MEL-2 melanoma
SK-MEL-28 melanoma = system: SK-MEL-28 melanoma
SK-MEL-5 melanoma = system: SK-MEL-5 melanoma
SK-OV-3 ovarian = system: SK-OV-3 ovarian
SN12C renal = system: SN12C renal
SNB-19 CNS = system: SNB-19 CNS
SNB-75 CNS = system: SNB-75 CNS
SR leukemia = system: SR leukemia
SW-620 colon = system: SW-620 colon
T-47D breast = system: T-47D breast
TK-10 renal = system: TK-10 renal
U251 CNS = system: U251 CNS
UACC-257 melanoma = system: UACC-257 melanoma
UACC-62 melanoma = system: UACC-62 melanoma
UO-31 renal = system: UO-31 renal
A498 renal = system: A498 renal
HOP-92 NSCLC = system: HOP-92 NSCLC
NCI-H460 lung = system: NCI-H460 lung
NCI-H522 lung = system: NCI-H522 lung
SF-539 CNS = system: SF-539 CNS

C[N+]1([O-])CCC(O)(C2CC2)CC1 (centres undefined)
> 100 µM: TGI (786-0 renal) | TGI (A549 NSCLC) | TGI (ACHN renal) | TGI (BT-549 breast) | TGI (CAKI-1 renal) | TGI (CCRF-CEM leukemia) | TGI (COLO 205 colon) | TGI (DU-145 prostate) | TGI (EKVX NSCLC) | TGI (HCC-2998 colon) | TGI (HCT-116 colon) | TGI (HCT-15 colon) | TGI (HL-60(TB) leukemia) | TGI (HOP-62 NSCLC) | TGI (HS 578T breast) | TGI (HT29 colon) | TGI (IGROV1 ovarian) | TGI (K-562 leukemia) | TGI (KM12 colon) | TGI (LOX IMVI melanoma) | TGI (M14 melanoma) | TGI (MALME-3M melanoma) | TGI (MCF7 breast) | TGI (MDA-MB-231 breast) | TGI (MDA-MB-435) | TGI (MOLT-4 leukemia) | TGI (NCI-H226 lung) | TGI (NCI-H23 lung) | TGI (NCI/ADR-RES ovarian) | TGI (OVCAR-3 ovarian) | TGI (OVCAR-4 ovarian) | TGI (OVCAR-5 ovarian) | TGI (OVCAR-8 ovarian) | TGI (PC-3 prostate) | TGI (RPMI-8226 leukemia) | TGI (RXF 393 renal) | TGI (SF-268 CNS) | TGI (SF-295 CNS) | TGI (SK-MEL-2 melanoma) | TGI (SK-MEL-28 melanoma) | TGI (SK-MEL-5 melanoma) | TGI (SK-OV-3 ovarian) | TGI (SN12C renal) | TGI (SNB-19 CNS) | TGI (SNB-75 CNS) | TGI (SR leukemia) | TGI (SW-620 colon) | TGI (T-47D breast) | TGI (TK-10 renal) | TGI (U251 CNS) | TGI (UACC-257 melanoma) | TGI (UACC-62 melanoma) | TGI (UO-31 renal)

Cc1ccc2cc3c(cc(C)c4ccccc43)c3c2c1CC3
inactive: GI50 (786-0 renal) > 100 µM | GI50 (A498 renal) 76 µM | GI50 (A549 NSCLC) > 100 µM | GI50 (ACHN renal) 60.1 µM | GI50 (BT-549 breast) > 100 µM | GI50 (CAKI-1 renal) > 100 µM | GI50 (CCRF-CEM leukemia) > 100 µM | GI50 (COLO 205 colon) > 100 µM | GI50 (DU-145 prostate) > 100 µM | GI50 (HCC-2998 colon) > 100 µM | GI50 (HCT-116 colon) > 100 µM | GI50 (HCT-15 colon) > 100 µM | GI50 (HOP-62 NSCLC) 58.8 µM | GI50 (HOP-92 NSCLC) 17.4 µM | GI50 (HS 578T breast) 89.1 µM | GI50 (HT29 colon) > 100 µM | GI50 (IGROV1 ovarian) > 100 µM | GI50 (K-562 leukemia) > 100 µM | GI50 (KM12 colon) > 100 µM | GI50 (LOX IMVI melanoma) > 100 µM | GI50 (M14 melanoma) > 100 µM | GI50 (MALME-3M melanoma) > 100 µM | GI50 (MCF7 breast) 35.2 µM | GI50 (MDA-MB-231 breast) 48.2 µM | GI50 (MDA-MB-435) > 100 µM | GI50 (MOLT-4 leukemia) > 100 µM | GI50 (NCI-H226 lung) > 100 µM | GI50 (NCI-H23 lung) > 100 µM | GI50 (NCI-H460 lung) > 100 µM | GI50 (NCI-H522 lung) > 100 µM | GI50 (NCI/ADR-RES ovarian) > 100 µM | GI50 (OVCAR-3 ovarian) > 100 µM | GI50 (OVCAR-4 ovarian) > 100 µM | GI50 (OVCAR-5 ovarian) > 100 µM | GI50 (OVCAR-8 ovarian) > 100 µM | GI50 (PC-3 prostate) > 100 µM | GI50 (RPMI-8226 leukemia) > 100 µM | GI50 (RXF 393 renal) 57.2 µM | GI50 (SF-268 CNS) > 100 µM | GI50 (SF-539 CNS) > 100 µM | GI50 (SK-MEL-2 melanoma) > 100 µM | GI50 (SK-MEL-28 melanoma) > 100 µM | GI50 (SK-MEL-5 melanoma) > 100 µM | GI50 (SK-OV-3 ovarian) > 100 µM | GI50 (SN12C renal) > 100 µM | GI50 (SNB-19 CNS) > 100 µM | GI50 (SNB-75 CNS) 26.7 µM | GI50 (SR leukemia) 87.5 µM | GI50 (SW-620 colon) > 100 µM | GI50 (T-47D breast) > 100 µM | GI50 (TK-10 renal) 65.6 µM | GI50 (UACC-62 melanoma) > 100 µM | GI50 (UO-31 renal) > 100 µM
> 100 µM: TGI (786-0 renal) | TGI (A498 renal) | TGI (A549 NSCLC) | TGI (ACHN renal) | TGI (BT-549 breast) | TGI (CAKI-1 renal) | TGI (CCRF-CEM leukemia) | TGI (COLO 205 colon) | TGI (DU-145 prostate) | TGI (HCC-2998 colon) | TGI (HCT-116 colon) | TGI (HCT-15 colon) | TGI (HOP-62 NSCLC) | TGI (HS 578T breast) | TGI (HT29 colon) | TGI (IGROV1 ovarian) | TGI (K-562 leukemia) | TGI (KM12 colon) | TGI (LOX IMVI melanoma) | TGI (M14 melanoma) | TGI (MALME-3M melanoma) | TGI (MCF7 breast) | TGI (MDA-MB-231 breast) | TGI (MDA-MB-435) | TGI (MOLT-4 leukemia) | TGI (NCI-H226 lung) | TGI (NCI-H23 lung) | TGI (NCI-H460 lung) | TGI (NCI-H522 lung) | TGI (NCI/ADR-RES ovarian) | TGI (OVCAR-3 ovarian) | TGI (OVCAR-4 ovarian) | TGI (OVCAR-5 ovarian) | TGI (OVCAR-8 ovarian) | TGI (PC-3 prostate) | TGI (RPMI-8226 leukemia) | TGI (RXF 393 renal) | TGI (SF-268 CNS) | TGI (SF-539 CNS) | TGI (SK-MEL-2 melanoma) | TGI (SK-MEL-28 melanoma) | TGI (SK-MEL-5 melanoma) | TGI (SK-OV-3 ovarian) | TGI (SN12C renal) | TGI (SNB-19 CNS) | TGI (SNB-75 CNS) | TGI (SR leukemia) | TGI (SW-620 colon) | TGI (T-47D breast) | TGI (TK-10 renal) | TGI (UACC-62 melanoma) | TGI (UO-31 renal)
82.3 µM: TGI (HOP-92 NSCLC)

From PubChem BioAssay (NCI)
